# In US8575153B2 (Kowa Company, Ltd., priority 2008, dated 2013):
# Experiments:
# [1] = target: Recombinant human JAK3 enzyme (JAK3 kinase region; Ala795-Ser1124) (Homo sapiens, UniProt P52333); experiment: JAK3 Kinase Assay (Kinase-Glo luminescent, ATP consumption); conditions: read-out: Inhibition rate (%) of JAK3 kinase activity
# Sequence of Recombinant human JAK3 enzyme (JAK3 kinase region; Ala795-Ser1124) (P52333 795-1124): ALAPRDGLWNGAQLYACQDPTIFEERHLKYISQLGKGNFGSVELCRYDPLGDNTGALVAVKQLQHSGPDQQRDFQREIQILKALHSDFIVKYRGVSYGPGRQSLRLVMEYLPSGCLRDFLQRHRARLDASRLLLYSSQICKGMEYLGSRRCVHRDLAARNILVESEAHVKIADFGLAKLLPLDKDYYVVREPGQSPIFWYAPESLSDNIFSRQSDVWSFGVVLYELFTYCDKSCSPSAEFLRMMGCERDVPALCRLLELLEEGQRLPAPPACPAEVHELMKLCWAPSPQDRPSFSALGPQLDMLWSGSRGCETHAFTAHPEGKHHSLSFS
# Method: Recombinant human JAK3 enzyme (JAK3 kinase region; Ala795-Ser1124) was purchased from Carna Biosciences, Inc.
# The reaction was conducted in a kinase buffer (reaction volume: a total of 50 μl) containing 8 mM MOPS (pH 7.0), 0.2 mM EDTA, a test compound solution prepared to each concentration and 0.5 μg/ml JAK3 enzyme using a 96-well polystyrene plate (clear-bottom white-wall). […] After incubating them at room temperature for 2 hours, 50 μl of Kinase-Glo Luminescent Kinase Assay reagent (Promega) was added to each well, and further incubated at room temperature for 10 minutes. Using a chemiluminescence microplate reader MicroLumat LB96P (Berthold), chemiluminescence intensity was measured to quantitate the amount of ATP remaining after reaction. From the amount of ATP consumed in the phosphorylation reaction, the inhibition rate (%) of JAK3 kinase activity was determined.
melting point,inhibition at 0.1 µM [1],Compound
239 to 242 °C (dec.),68%,"CC(C)S(=O)(=O)N1CCN(c2ccc(Nc3cc(NCc4cc(F)cc(F)c4)c(C(N)=O)cn3)cc2)CC1 [Example 170, 4-[(3,5-difluorobenzyl)amino]-6-({4-[4-(propan-2-ylsulfonyl)piperazin-1-yl]phenyl}amino) pyridine-3-carboxyamide]"
202.9 to 203.3 °C (dec.),89%,"COC1CCN(c2ccc(Nc3cc(NCc4cc(F)cc(F)c4)c(C(N)=O)cn3)cc2)CC1 [Example 190, 4-[(3,5-difluorobenzyl)amino]-6-{[4-(4-methoxypiperidino)phenyl]amino}pyridine-3-carboxyamide]"
238 to 240 °C (dec.),63%,"NC(=O)c1cnc(Nc2ccc(N3CCC(O)CC3)cc2)cc1NCc1cc(F)cc(F)c1 [Example 191, 4-[(3,5-difluorobenzyl)amino]-6-{[4-(4-hydroxypiperidino)phenyl]amino}pyridine-3-carboxyamide]"
223 to 226 °C (dec.),89%,"NC(=O)c1cnc(Nc2ccc(N3CCC(=O)CC3)cc2)cc1NCc1cc(F)cc(F)c1 [Example 192, 4-[(3,5-difluorobenzyl)amino]-6-{[4-(4-oxopiperidino)phenyl]amino}pyridine-3-carboxyamide]"
180 to 181 °C,60%,"NCCCc1ccc(Nc2cc(NCc3cc(F)cc(F)c3)c(C(N)=O)cn2)cc1 [Example 201, 6-{[4-(3-aminopropyl)phenyl]amino}-4-[(3,5-difluorobenzyl)amino]pyridine-3-carboxyamide]"
190 to 194 °C (dec.),,"NCCN1CCN(c2ccc(Nc3cc(NCc4cc(F)cc(F)c4)c(CC(N)=O)cn3)cc2)CC1 [Example 248, 6-({4-{4-(2-aminoethyl)piperazin-1-yl]phenyl}amino]-4-[(3,5-difluorobenzyl)amino]pyridine-3-carboxyamide]"
216 to 219 °C (dec.),81%,"CS(=O)(=O)NCCN1CCN(c2ccc(Nc3cc(NCc4cc(F)cc(F)c4)c(C(N)=O)cn3)cc2)CC1 [Example 249, 4-[(3,5-difluorobenzyl)amino]-6-{[4-(4-{2-[(methylsulfonyl)amino]ethyl}piperazin-1-yl]phenyl]amino}pyridine-3-carboxyamide]"
113 to 120 °C (dec.),88%,"CNCCN1CCN(c2ccc(Nc3cc(NCc4cc(F)cc(F)c4)c(C(N)=O)cn3)cc2)CC1 [Example 251, 4-[(3,5-difluorobenzyl)amino]-6-[(4-{4-[2-(methylamino)ethyl]piperazin-1-yl}phenyl)amino]pyridine-3-carboxyamide]"

# Second part, the compound before the results:
Compound,melting point,inhibition at 0.1 µM [1]
"Cc1c(F)cccc1CNc1cc(Nc2ccc(N3CCOCC3)cc2)ncc1C(N)=O [Example 100, 4-[(3-fluoro-2-methylbenzyl)amino]-6-[(4-morpholinophenyl)amino]pyridine-3-carboxyamide]",229 to 230 °C,69%
"N#Cc1cc(Nc2cc(NCc3cc(F)cc(F)c3)c(C(N)=O)cn2)ccc1N1CCOCC1 [Example 125, 6-[(3-cyano-4-morpholinophenyl)amino]-4-[(3,5-difluorobenzyl)amino]pyridine-3-carboxyamide]",213.5 to 214.1 °C (dec.),61%
"Cc1cc(Nc2cc(NCc3cc(F)cc(F)c3)c(C(N)=O)cn2)ccc1N1CCOCC1 [Example 126, 4-[(3,5-difluorobenzyl)amino]-6-[(3-methyl-4-morpholinophenyl)amino]-pyridine-3-carboxyamide]",223 to 224 °C (dec.),60%
"NC(=O)c1cnc(Nc2ccc(N3CCOCC3)c(Cl)c2)cc1NCc1cc(F)cc(F)c1 [Example 127, 6-[(3-chloro-4-morpholinophenyl)amino]-4-[(3,5-difluorobenzyl)amino]pyridine-3-carboxyamide]",222 to 223 °C (dec.),81%
"COc1cc(Nc2cc(NCc3cc(F)cc(F)c3)c(C(N)=O)cn2)ccc1N1CCOCC1 [Example 128, 4-[(3,5-difluorobenzyl)amino]-6-[(3-methoxy-4-morpholinophenyl)amino]pyridine-3-carboxyamide]",229.6 to 230 °C (dec.),92%
"NC(=O)c1cnc(Nc2cccc(N3CCOCC3)c2)cc1NCc1cc(F)cc(F)c1 [Example 131, 4-[(3,5-difluorobenzyl)amino]-6-[(3-morpholinophenyl)amino]pyridine-3-carboxyamide]",197 to 198 °C (dec.),91%
"C[C@@H]1CN(c2ccc(Nc3cc(NCc4c(F)cccc4F)c(C(N)=O)cn3)cc2)C[C@H](C)N1 [Example 143, 4-[(2,6-difluorobenzyl)amino]-6-({4-[(3R,5S)-3,5-dimethylpiperazin-1-yl]phenyl}amino) pyridine-3-carboxyamide]",218 to 219 °C,88%
"CS(=O)(=O)Nc1ccc(Nc2cc(NCc3cc(F)cc(F)c3)c(C(N)=O)cn2)cc1 [Example 159, 4-[(3,5-difluorobenzyl)amino]-6-({4-[(methylsulfonyl)amino]phenyl}amino)pyridine-3-carboxyamide]",236 to 238 °C (dec.),100%
"NC(=O)c1cnc(Nc2ccc(N3CCCNCC3)cc2)cc1NCc1ccccc1 [Example 226, 4-(benzylamino)-6-{[4-(1,4-diazepan-1-yl)phenyl]amino}pyridine-3-carboxyamide]",165 to 167 °C,61%
"CCN(CC)CCN1CCN(c2ccc(Nc3cc(NCc4cccc([N+](=O)[O-])c4)c(C(N)=O)cn3)cc2)CC1 [Example 235, 6-[(4-{4-[2-(diethylamino)ethyl]piperazin-1-yl}phenyl)amino]-4-[(3-nitrobenzyl)amino]pyridine-3-carboxyamide]",165 to 166 °C,82%
"N#CCCCN1CCN(c2ccc(Nc3cc(NCc4cccc([N+](=O)[O-])c4)c(C(N)=O)cn3)cc2)CC1 [Example 242, 6-({4-[4-(3-cyanopropyl)piperazin-1-yl]phenyl}amino)-4-[(3-nitrobenzyl)amino]pyridine-3-carboxyamide]",190 to 191 °C (dec.),77%
"CC(=O)N1CCCN(c2ccc(Nc3cc(NCc4ccccc4)c(C(N)=O)cn3)cc2)CC1 [Example 256, 6-{[4-(4-acetyl-1,4-diazepan-1-yl)phenyl]amino}-4-(benzylamino)pyridine-3-carboxyamide]",224 to 227 °C,77%
"CCCC(=O)N1CCN(c2ccc(Nc3cc(NCc4ccccc4)c(C(N)=O)cn3)cc2)CC1 [Example 258, 4-(benzylamino)-6-{[4-(4-butanoylpiperazin-1-yl)phenyl]amino}pyridine-3-carboxyamide]",233.5 to 235.2 °C (dec.),60%
"CC(C)C(=O)N1CCN(c2ccc(Nc3cc(NCc4ccccc4)c(C(N)=O)cn3)cc2)CC1 [Example 259, 4-(benzylamino)-6-({4-[4-(2-methylpropanoyl)piperazin-1-yl]phenyl}amino)pyridine-3-carboxyamide]",218 to 220 °C (dec.),67%
"CCN(CC)CC(=O)N1CCN(c2ccc(Nc3cc(NCc4cccc([N+](=O)[O-])c4)c(C(N)=O)cn3)cc2)CC1 [Example 276, 6-({4-[4-(N,N-diethylglycyl)piperazin-1-yl]phenyl}amino)-4-[(3-nitrobenzyl)amino]pyridine-3-carboxyamide]",190 to 191 °C (dec.),68%
"NC(=O)c1cnc(Nc2ccc(NC3CCNCC3)cc2)cc1NCc1ccccc1 [Example 289, 4-(benzylamino)-6-{[4-(piperidin-4-ylamino)phenyl]amino}pyridine-3-carboxyamide]",169 to 172 °C (dec.),74%
"CC(C)NC(=O)N1CCC(Nc2ccc(Nc3cc(NCc4ccccc4)c(C(N)=O)cn3)cc2)CC1 [Example 291, 4-(benzylamino)-6-[(4-{[1-(propan-2-ylcarbamoyl)piperidin-4-yl]amino}phenyl)amino]pyridine-3-carboxyamide]",166 to 167 °C,79%
"CC(C)S(=O)(=O)N1CCC(c2ccc(Nc3cc(NCc4cc(F)cc(F)c4)c(C(N)=O)cn3)cc2)CC1 [Example 296, 4-[(3,5-difluorobenzyl)amino]-6-({4-[1-(propan-2-ylsulfonyl)piperidin-4-yl]phenyl}amino) pyridine-3-carboxyamide]",142 to 144 °C (dec.),
